Data: patent US20120302573A1, “METHODS OF INHIBITING PRO MATRIX METALLOPROTEINASE ACTIVATION” (priority 2011, published 2012)
Where a name gives a salt, the structure may show the parent alone.

Experiments:
[1] = biological target: T1, proMMP9(20-445;ΔFnII) (SEQ ID NO:6) (Homo sapiens, UniProt P14780, DEL216-390); test: ThermoFluor binding assay with proMMP9(20-445;ΔFnII)
T1 construct: amino acid pairs including: 29-215/391-444, 67-215/391-444, and 20-215/391-445, respectively; start methionine (N); made in house; host or cells: E. coli BL21(DE3) RIL
T1 sequence (P14780 with tags, fused parts or gaps DEL216-390): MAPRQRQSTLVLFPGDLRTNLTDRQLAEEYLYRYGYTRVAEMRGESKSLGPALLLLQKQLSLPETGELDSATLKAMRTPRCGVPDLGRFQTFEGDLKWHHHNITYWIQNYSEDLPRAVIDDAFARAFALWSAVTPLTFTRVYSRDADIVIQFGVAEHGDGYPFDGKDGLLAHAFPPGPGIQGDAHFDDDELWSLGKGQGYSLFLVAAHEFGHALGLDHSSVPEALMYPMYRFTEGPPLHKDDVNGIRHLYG
Procedure: (§1) The experiments were carried out using instruments available from Johnson & Johnson Pharmaceutical Research & Development, LLC. TF dye used in all experiments was […] (1,8-ANS) (Invitrogen: A-47).
(§2) Columns 12 and 24 were used as DMSO reference and contained no compound. […] Following compound dispense, protein and dye solutions were added to achieve the final assay volume of 3 μL.
(§3) Assay plates were robotically loaded onto a thermostatically controlled PCR-type thermal block and then heated from 40 to 90° C. at a ramp-rate of 1° C./min for all experiments. Fluorescence was measured by continuous illumination with UV light (Hamamatsu LC6) supplied via fiber optics and filtered through a band-pass filter (380-400 nm; >6 OD cutoff). Fluorescence emission of the entire 384-well plate was detected by measuring light intensity using a CCD camera (Sensys, Roper Scientific) filtered to detect 500±25 nm, resulting in simultaneous and independent readings of all 384 wells.
(§4) Thermodynamic parameters necessary for fitting compound binding for each proMMP were estimated by differential scanning calorimetry (DSC) and from ThermoFluor® data. The heat capacity of unfolding for each protein was estimated from the molecular weight and from ThermoFluor® dosing data.
The protein sample preparations included a desalting buffer exchange step via a PD-10 gravity column (GE Healthcare).

[2] = biological target: T2, proMMP9(67-444;ΔFnII) (SEQ ID NO:5) (Homo sapiens, UniProt P14780, DEL216-390); test: ThermoFluor binding assay with proMMP9(67-444;ΔFnII)
T2 construct: amino acid pairs including: 29-215/391-444, 67-215/391-444, and 20-215/391-445, respectively; start methionine (N); made in house; host or cells: E. coli BL21(DE3) RIL
T2 sequence (P14780 with tags, fused parts or gaps DEL216-390): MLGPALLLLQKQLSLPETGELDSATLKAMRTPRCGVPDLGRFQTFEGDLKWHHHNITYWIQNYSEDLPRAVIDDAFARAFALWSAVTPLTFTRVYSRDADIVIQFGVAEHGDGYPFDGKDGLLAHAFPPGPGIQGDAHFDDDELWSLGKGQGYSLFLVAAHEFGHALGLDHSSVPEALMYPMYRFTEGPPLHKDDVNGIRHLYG
Procedure: as §1, §2, §3, §4
The protein sample preparations had to include a desalting buffer exchange step via a PD-10 gravity column (GE Healthcare).

[3] = biological target: T3, proMMP13(1-268) (SEQ ID NO:7) (Homo sapiens, UniProt P45452); test: ThermoFluor binding assay with proMMP13(1-268)
T3 construct: 6x-histidine tag (C); made in house; host or cells: HEK293
Procedure: The ThermoFluor® (TF) assay is a 384-well plate-based binding assay that measures thermal stability of proteins (Biomol Screen 2001, 6, 429-40; Biochemistry 2005, 44, 5258-66). The experiments were carried out using instruments available from Johnson & Johnson Pharmaceutical Research & Development, LLC. TF dye used in all experiments was […] (1,8-ANS) (Invitrogen: A-47).
Compounds were arranged in a pre-dispensed plate (Greiner Bio-one: 781280), wherein compounds were serially diluted in 100% DMSO across 11 columns within a series. Columns 12 and 24 were used as DMSO reference and contained no compound. For multiple compound concentration-response experiments, the compound aliquots ([…]) were robotically predispensed directly into black 384-well polypropylene PCR microplates (Abgene: TF-0384/k) using a Cartesian Hummingbird liquid handler (DigiLab, Holliston, Mass.). Following compound dispense, protein and dye solutions were added to achieve the final assay volume of 3 μL. The assay solutions were overlayed with 1 μL of silicone oil (Fluka, type DC 200: 85411) to prevent evaporation.
as §3, with “wells. A single image with 20-sec exposure time was collected at each temperature, and the sum of the pixel intensity in a given area of the assay plate was recorded vs temperature and fit to standard equations to yield the Tm (J Biomol Screen 2001, 6, 429-40).” for “wells.”
as §4
The proMMP13(1-268) (SEQ ID NO:7) protein sample preparations included a desalting buffer exchange step via a PD-10 gravity column (GE Healthcare). The desalting buffer exchange was performed prior to diluting the protein to the final assay concentration of 3.5 μM. The concentration of proMMP13(1-268) (SEQ ID NO:7) was estimated spectrophotometrically based on a calculated extinction coefficient of ε280=37000 M^−1 cm^−1, a calculated molecular weight of 30.8 kDa, and calculated pI of 5.33. ThermoFluor® reference conditions were defined as follows: 100 μg/mL proMMP13(1-268) (SEQ ID NO:7), 25 μM 1,8-ANS, pH 7.0 Buffer (50 mM HEPES pH 7.0, 100 mM NaCl, 0.001% Tween-20, 2.5 mM MgCl2, 300 μM CaCl2). The thermodynamic parameters for proMMP13(1-268) (SEQ ID NO:7) are as follows: Tm (° C.)=67 (+/−0.1), ΔUH(Tm) (cal mol^−1)=107000(+/−5000), ΔUS(Tm) (cal mol^−1 K^−1)=318, ΔUCp (cal mol^−1 K^−1)=2600.

[4] = biological target: full-length proMMP9(1-707) activation by catalytic MMP3 (Homo sapiens, UniProt P14780, R574P); test: ProMMP9/MMP3 DQ Gelatin Activation Assay;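 also: readout is fluorescence of quenched fluorescein gelatin cut by activated MMP9, 30 min activation at 37 °C, inhibition relative to DMSO-only controls with EDTA as blank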; format: biochemical; design: made in house; host or cells: COS-1 (proMMP9); E. coli (MMP3); details: proMMP9 from COS-1 cells; read-out: ProMMP9/MMP3 DQ gel, IC50
full-length proMMP9(1-707) activation by catalytic MMP3, sequence (P14780 20-707 R574P): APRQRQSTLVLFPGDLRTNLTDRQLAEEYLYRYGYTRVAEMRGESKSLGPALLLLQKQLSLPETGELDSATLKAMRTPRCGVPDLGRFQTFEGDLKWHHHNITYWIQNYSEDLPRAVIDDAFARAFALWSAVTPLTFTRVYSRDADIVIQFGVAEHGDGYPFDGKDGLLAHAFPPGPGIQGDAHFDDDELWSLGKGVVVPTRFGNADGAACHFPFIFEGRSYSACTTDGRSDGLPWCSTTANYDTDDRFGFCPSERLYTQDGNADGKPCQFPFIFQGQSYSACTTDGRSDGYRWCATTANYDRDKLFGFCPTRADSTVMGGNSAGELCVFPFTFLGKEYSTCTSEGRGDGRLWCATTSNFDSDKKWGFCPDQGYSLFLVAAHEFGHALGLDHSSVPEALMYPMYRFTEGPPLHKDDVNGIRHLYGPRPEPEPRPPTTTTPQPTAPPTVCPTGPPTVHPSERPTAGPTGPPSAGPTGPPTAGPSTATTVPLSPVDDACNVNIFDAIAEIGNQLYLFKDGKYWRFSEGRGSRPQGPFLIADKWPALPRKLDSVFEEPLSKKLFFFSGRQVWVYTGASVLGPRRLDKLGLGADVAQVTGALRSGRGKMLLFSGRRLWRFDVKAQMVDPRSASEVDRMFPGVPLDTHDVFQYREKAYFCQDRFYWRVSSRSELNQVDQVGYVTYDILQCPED
Procedure: Compounds were assessed for inhibition of proMMP9 activation by catalytic MMP3 using a quenched fluorescein gelatin substrate (DQ gelatin, Invitrogen D12054) that fluoresces upon cleavage by activated MMP9. The assay buffer employed was 50 mM Hepes, pH 7.5, 10 mM CaCl2, 0.05% Brij-35. DMSO was included at a final concentration of 0.2%, arising from the test compound addition. […] Test compounds in DMSO were diluted 250-fold in assay buffer at 4× the final concentration. The reaction volume was 12 μL, and all reactions were conducted in triplicate. […] The plate was sealed and incubated for 30 min at 37° C. […] Immediately following the 30 min incubation, 4 μL of 40 μg/ml DQ gelatin substrate was added (freshly diluted in assay buffer), and incubated for 10 min at room temperature. […] Reactivity of residual MMP3 towards DQ gelatin was minimal under these conditions. Percent inhibition of test compounds were determined from suitable positive (DMSO only in assay buffer) and negative (EDTA added prior to reaction initiation) controls. Plots of % inhibition vs. test compound concentration were fit to a four-parameter logistics equation (GraphPad Prism® software) for determination of IC50.

| Structure (SMILES) | Kd [1] [µM] | Kd [2] [µM] | Kd [3] [µM] | IC50 [4] [µM] |
| --- | --- | --- | --- | --- |
| COc1c(Cl)cccc1Nc1nc(-c2sc(N)nc2C)cs1 [Example 7, N^2-(3-Chloro-2-methoxy-phenyl)-4′-methyl-[4,5′]bithiazolyl-2,2′-diamine.HBr] | 12.9 | 8.84 | 44.6 | – |
| Cc1nc(N)sc1-c1csc(Nc2cccc(C(N)=O)c2)n1 [Example 8, 3-(2′-Amino-4′-methyl-[4,5′]bithiazolyl-2-ylamino)-benzamide.HBr] | 10.8 | 30.2 | 26.9 | – |
| COc1ccccc1Nc1nc(-c2cnc(N)s2)cs1 [Example 10, N^2-(2-Methoxy-phenyl)-[4,5′]bithiazolyl-2,2′-diamine.HBr] | 9.61 | 3.67 | 55.9 | – |
| CCc1nc(N)sc1-c1nc(Nc2ccccc2OC)sc1C [Example 11, 4′-Ethyl-N^2-(2-methoxy-phenyl)-5-methyl-[4,5′]bithiazolyl-2,2′-diamine] | > 95 | 19.9 | 58.9 | – |
| CCc1nc(N)sc1-c1nc(Nc2cc(Cl)ccc2OC)sc1C [Example 17, N^2-(5-Chloro-2-methoxy-phenyl)-4′-ethyl-5-methyl-[4,5′]bithiazolyl-2,2′-diamine] | 15.6 | 3.99 | 10.7 | – |
| COc1ccccc1Nc1nc(-c2sc(N)nc2C(F)(F)F)cs1 [Example 22, N^2-(2-Methoxy-phenyl)-4′-trifluoromethyl-[4,5′]bithiazolyl-2,2′-diamine.TFA] | 12.3 | 2.32 | 44.2 | – |
| COc1ccccc1Nc1nc(-c2sc(-c3cnccn3)nc2C)cs1 [Example 26, (2-Methoxy-phenyl)-(4′-methyl-2′-pyrazin-2-yl-[4,5′]bithiazolyl-2-yl)-amine.TFA] | > 95 | > 95 | 4.78 | 13.8 |
| COc1ccc(-c2csc(Nc3ccccc3OC)n2)cn1 [Example 28, (2-Methoxy-phenyl)-[4-(6-methoxy-pyridin-3-yl)-thiazol-2-yl]-amine.TFA] | > 65 | 22.6 | > 95 | 15.6 |
| COc1ccccc1Nc1nc(-c2cc(C)ccn2)cs1 [Example 30, (2-Methoxy-phenyl)-[4-(4-methyl-pyridin-2-yl)-thiazol-2-yl]-amine.TFA] | > 95 | 13.8 | 42 | – |

Continued, values first:

| Kd [1] [µM] | Kd [2] [µM] | Kd [3] [µM] | IC50 [4] [µM] | Structure (SMILES) |
| --- | --- | --- | --- | --- |
| 5.16 | 4.48 | > 95 | > 20 | COc1ccccc1Nc1nc(-c2sc(NC(C)C)nc2C)cs1 [Example 37, N^2′-Isopropyl-N^2-(2-methoxy-phenyl)-4′-methyl-[4,5′]bithiazolyl-2,2′-diamine.HCl] |
| 76.7 | 13.1 | 20.4 | > 20 | COc1ccccc1Nc1nc(-c2ccc(-c3ccccc3)s2)cs1 [Example 43, (2-Methoxy-phenyl)-[4-(5-phenyl-thiophen-2-yl)-thiazol-2-yl]-amine.TFA] |
| > 95 | 44.7 | > 95 | 11.9 | COc1ccccc1Nc1nc(-c2oc(C)nc2C)cs1 [Example 44, [4-(2,4-Dimethyl-oxazol-5-yl)-thiazol-2-yl]-(2-methoxy-phenyl)-amine.TFA] |
| 65.2 | 36.7 | 16 | 8.6 | COc1ccccc1Nc1nc(-c2c(C)nc3ccccn23)cs1 [Example 46, (2-Methoxy-phenyl)-[4-(2-methyl-imidazo[1,2-a]pyridin-3-yl)-thiazol-2-yl]-amine] |
| > 90 | 40.9 | > 95 | 5.2 | CCOc1ccccc1Nc1nc(-c2sc(NC(=O)CC)nc2C)cs1 [Example 47, N-[2-(2-Ethoxy-phenylamino)-4′-methyl-[4,5′]bithiazolyl-2′-yl]-propionamide] |
| 7.27 | 9.09 | 13.2 | 3.3 | CCOc1ccccc1Nc1nc(-c2c(C)nc3ncccn23)cs1 [Example 52, (2-Ethoxy-phenyl)-[4-(2-methyl-imidazo[1,2-a]pyrimidin-3-yl)-thiazol-2-yl]-amine] |
| 28.6 | 15.1 | > 95 | 4.7 | CCOc1ccccc1Nc1nc(-c2cccnc2)cs1 [Example 53, (2-Ethoxy-phenyl)-(4-pyridin-3-yl-thiazol-2-yl)-amine] |
| > 95 | 22.5 | > 95 | 13 | COc1ccccc1Nc1nc(-c2cccnc2)cs1 [Example 55, (2-Methoxy-phenyl)-(4-pyridin-3-yl-thiazol-2-yl)-amine] |
| 13.4 | 3.01 | > 95 | 2.6 | CCC(=O)Nc1nc(C)c(-c2csc(Nc3ccccc3OC)n2)s1 [Example 58, N-[2-(2-Methoxy-phenylamino)-4′-methyl-[4,5′]bithiazolyl-2′-yl]-propionamide] |
| 16.8 | 11.3 | 44.4 | 5.5 | COc1ccccc1Nc1nc(-c2ccncc2)cs1 [Example 60, (2-Methoxy-phenyl)-(4-pyridin-4-yl-thiazol-2-yl)-amine] |
| 5.07 | 1.06 | 21 | 1.6 | COc1ccc(OC)c(Nc2nc(-c3sc(NC(C)=O)nc3C)cs2)c1 [Example 61, N-[2-(2,5-Dimethoxy-phenylamino)-4′-methyl-[4,5′]bithiazolyl-2′-yl]-acetamide] |
| 8.29 | 2.46 | 47.2 | 3.4 | CCc1ccccc1Nc1nc(-c2sc(NC(C)=O)nc2C)cs1 [Example 62, N-[2-(2-Ethyl-phenylamino)-4′-methyl-[4,5′]bithiazolyl-2′-yl]-acetamide] |
